Laboratory results published in the supplement of paper PMC10307832.

Legend:
Experiment in all cases: relative viability (nuclei count vs DMSO), 5 days (fraction); higher = more cells survive
Metformin + Crizotinib = compound: CN(C)C(=N)NC(=N)N [Metformin] + C[C@@H](Oc1cc(-c2cnn(C3CCNCC3)c2)cnc1N)c1c(Cl)ccc(F)c1Cl [Crizotinib] (partner 1 µM)
Outline: (§1)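 Values are medians from duplicate plates. Each reflects relative viability, defined as the nuclei count of treated wells over that of vehicle wells. Lung cancer cell lines in 1536-well plates were pin-tool dosed one day after seeding with one drug alone or with a fixed anchor-drug dose plus five library-drug doses (not always all listed) in √10 steps, then fixed, stained and imaged at 4× after 5 days.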

Apatinib + Navitoclax = compound: N#CC1(c2ccc(NC(=O)c3cccnc3NCc3ccncc3)cc2)CCCC1 [Apatinib] + CC1(C)CCC(c2ccc(Cl)cc2)=C(CN2CCN(c3ccc(C(=O)NS(=O)(=O)c4ccc(N[C@H](CCN5CCOCC5)CSc5ccccc5)c(S(=O)(=O)C(F)(F)F)c4)cc3)CC2)C1 [Navitoclax] (partner 0.5 µM)
Outline: as §1

Apatinib + Luminespib = compound: N#CC1(c2ccc(NC(=O)c3cccnc3NCc3ccncc3)cc2)CCCC1 [Apatinib] + CCNC(=O)c1noc(-c2cc(C(C)C)c(O)cc2O)c1-c1ccc(CN2CCOCC2)cc1 [Luminespib] (partner 0.01 µM)
Outline: as §1

Apatinib + Dasatinib = compound: N#CC1(c2ccc(NC(=O)c3cccnc3NCc3ccncc3)cc2)CCCC1 [Apatinib] + Cc1nc(Nc2ncc(C(=O)Nc3c(C)cccc3Cl)s2)cc(N2CCN(CCO)CC2)n1 [Dasatinib] (partner 0.075 µM)
Outline: as §1

Cell Line	relative viability (Metformin + Crizotinib; first compound 10 µM)	relative viability (Metformin + Crizotinib; first compound 31.62 µM)	relative viability (Metformin + Crizotinib; first compound 100 µM)	relative viability (Metformin + Crizotinib; first compound 316.23 µM)	relative viability (Metformin + Crizotinib; first compound 1000 µM)	relative viability (Apatinib + Navitoclax; first compound 0.08 µM)	relative viability (Apatinib + Navitoclax; first compound 0.253 µM)	relative viability (Apatinib + Navitoclax; first compound 0.8 µM)	relative viability (Apatinib + Navitoclax; first compound 2.53 µM)	relative viability (Apatinib + Navitoclax; first compound 8 µM)	relative viability (Apatinib + Luminespib; first compound 0.08 µM)	relative viability (Apatinib + Luminespib; first compound 0.253 µM)	relative viability (Apatinib + Luminespib; first compound 0.8 µM)	relative viability (Apatinib + Luminespib; first compound 2.53 µM)	relative viability (Apatinib + Luminespib; first compound 8 µM)	relative viability (Apatinib + Dasatinib; first compound 0.08 µM)	relative viability (Apatinib + Dasatinib; first compound 0.253 µM)	relative viability (Apatinib + Dasatinib; first compound 0.8 µM)	relative viability (Apatinib + Dasatinib; first compound 2.53 µM)	relative viability (Apatinib + Dasatinib; first compound 8 µM)
NCI-H1755	0.677	0.792	0.744	0.756	0.753	1	0.968	0.963	0.952	0.865	0.295	0.695	0.524	0.491	0.479	0.524	0.484	0.451	0.394	0.399
EPLC-272H	1.07	1.03	0.874	0.918	1.06	1.06	1.05	0.961	1.04	0.731	0.898	–	0.92	0.329	0.201	0.382	–	0.358	0.355	0.335
NCI-H23	0.574	0.692	0.693	0.548	0.811	1.01	0.931	0.742	0.725	0.794	0.23	0.22	0.211	0.2	0.213	0.799	0.837	0.694	0.727	0.611
NCI-H1650	0.961	0.855	1.04	0.877	0.82	1.39	1.41	1.18	1.1	1.06	–	0.185	0.217	0.179	0.168	–	0.346	0.341	0.23	0.262
NCI-H1792	–	0.956	1.13	0.971	0.98	0.572	0.596	0.569	0.559	0.592	0.495	0.521	0.43	0.308	0.274	0.965	0.789	0.763	0.573	0.512
NCI-H1944	1.06	1.29	1.26	1.11	1.12	1.04	1.06	0.976	0.974	0.965	0.701	0.773	0.667	0.644	0.494	0.247	0.204	0.208	0.254	0.249
NCI-H2170	1.09	1.14	1.19	1.02	1.19	0.617	0.646	0.568	0.599	0.498	0.841	0.649	0.609	0.676	0.621	0.551	0.447	0.489	0.464	0.572
COR-L23	0.564	0.461	0.483	0.574	0.639	1.05	1.02	0.871	0.885	0.827	0.687	0.643	0.702	0.628	0.509	0.469	0.598	0.518	0.45	0.405
COR-L 105	0.71	0.841	0.821	0.745	0.697	0.665	1.03	0.695	0.841	0.636	0.796	0.789	0.896	0.697	0.67	0.357	0.349	0.351	0.3	0.269
HCC-15	0.818	0.81	0.889	0.8	0.833	0.733	0.718	0.681	0.608	0.653	0.364	0.241	0.302	0.317	0.316	0.686	0.626	0.605	0.574	0.63
NCI-H1666	1.26	1.03	1.15	1.09	1.2	1.02	0.963	1.07	0.815	1.04	0.948	1.07	1.04	0.983	1.05	0.931	0.803	0.796	0.703	0.713
A-427	0.802	1.17	0.84	0.926	0.896	0.929	0.911	0.934	0.853	0.478	0.924	0.779	0.928	0.72	0.8	0.706	0.66	0.798	0.671	0.575
NCI-H596	1.05	1.17	1.09	1.11	1.17	1.03	1.11	0.927	0.945	0.857	1.09	1.2	0.926	0.97	0.903	0.634	0.564	0.556	0.564	0.555
EMC-BAC-2	0.731	0.8	0.828	0.702	0.805	1.2	1.13	1.14	1.07	0.974	1.22	1.29	1.14	1.09	0.987	0.32	0.428	0.349	0.282	0.293
NCI-H2126	0.863	0.946	0.957	0.908	0.956	0.9	0.859	0.826	0.811	0.802	0.963	0.774	0.985	0.826	0.832	0.584	0.514	0.52	0.488	0.446
NCI-H1437	0.931	0.918	0.935	0.898	0.902	1.12	1.14	0.939	0.928	0.776	1.11	1.12	1.11	0.923	0.817	0.28	0.417	0.373	0.266	0.157

Cell Line	relative viability (Metformin + Crizotinib; first compound 10 µM)	relative viability (Metformin + Crizotinib; first compound 31.62 µM)	relative viability (Metformin + Crizotinib; first compound 100 µM)	relative viability (Metformin + Crizotinib; first compound 316.23 µM)	relative viability (Metformin + Crizotinib; first compound 1000 µM)	relative viability (Apatinib + Navitoclax; first compound 0.08 µM)	relative viability (Apatinib + Navitoclax; first compound 0.253 µM)	relative viability (Apatinib + Navitoclax; first compound 0.8 µM)	relative viability (Apatinib + Navitoclax; first compound 2.53 µM)	relative viability (Apatinib + Navitoclax; first compound 8 µM)	relative viability (Apatinib + Luminespib; first compound 0.08 µM)	relative viability (Apatinib + Luminespib; first compound 0.253 µM)	relative viability (Apatinib + Luminespib; first compound 0.8 µM)	relative viability (Apatinib + Luminespib; first compound 2.53 µM)	relative viability (Apatinib + Luminespib; first compound 8 µM)	relative viability (Apatinib + Dasatinib; first compound 0.08 µM)	relative viability (Apatinib + Dasatinib; first compound 0.253 µM)	relative viability (Apatinib + Dasatinib; first compound 0.8 µM)	relative viability (Apatinib + Dasatinib; first compound 2.53 µM)	relative viability (Apatinib + Dasatinib; first compound 8 µM)
LXF-289	0.764	0.759	0.812	0.776	0.794	0.948	0.925	0.95	0.82	0.882	0.644	0.857	0.633	0.652	0.743	0.234	0.253	0.232	0.177	0.182
LK-2	0.228	0.214	0.234	0.176	0.245	0.879	0.857	0.885	0.769	0.634	0.185	0.178	0.187	0.209	0.188	0.39	0.258	0.227	0.24	0.257
LC-2-ad	0.369	0.357	0.338	0.415	0.378	0.414	0.457	0.387	0.287	0.235	1.08	1.16	1.01	1.01	0.917	0.718	0.774	0.511	0.391	0.4
NCI-H2085	0.952	0.694	0.947	0.721	0.879	1.18	1.23	1.18	1.05	0.949	0.396	0.527	0.429	0.421	0.361	0.229	0.229	0.231	0.243	0.215
RERF-LC-KJ	0.802	0.739	0.718	0.424	0.74	0.931	1.04	0.874	0.557	0.997	1.11	1.35	1.07	1.22	1.02	0.859	0.897	0.754	0.615	0.52
LOU-NH91	0.747	0.806	0.766	0.802	0.847	0.692	0.744	0.517	0.565	0.58	0.354	0.363	0.386	0.356	0.354	0.505	0.552	0.498	0.528	0.471
NCI-H2009	1.06	1.07	1.11	1.04	0.878	1.22	1.23	1.12	0.913	0.826	1.1	1.09	0.988	0.992	0.86	0.374	0.326	0.31	0.195	0.179
UMC-11	0.725	0.742	0.673	0.626	0.598	0.343	0.335	0.319	0.247	0.266	1.13	1.02	0.926	1.04	0.886	0.518	0.515	0.42	0.442	0.394
NCI-H2347	0.545	0.763	0.85	0.566	0.675	0.783	0.698	0.948	0.728	0.74	0.501	0.415	0.404	0.416	0.789	0.343	0.26	0.371	0.276	0.352
LU99A	0.47	0.52	0.443	0.503	0.481	0.876	0.851	0.745	0.721	0.732	0.294	0.302	0.221	0.241	0.213	0.526	0.565	0.523	0.486	0.416
NCI-H3122	0.225	0.213	0.241	0.255	0.224	1.07	0.965	1.01	1.08	1.04	0.0784	0.0827	0.0738	0.0782	0.0871	0.858	0.666	0.836	0.845	0.538
SW 1573	0.892	0.849	0.866	0.706	0.815	1.01	1	1.19	0.927	0.885	0.318	0.184	0.183	0.162	0.195	0.454	0.624	0.393	0.351	0.458
HARA	1.13	1.09	1.15	1.01	1.08	1.15	1.18	1.1	1.13	1.07	0.928	0.875	0.419	0.6	0.678	0.373	0.242	0.209	0.213	0.248
NCI-H727	0.886	0.886	1.04	0.811	0.993	0.465	0.552	0.384	0.425	0.531	0.307	0.31	0.393	0.387	0.233	0.374	0.372	0.346	0.29	0.42
201T	–	1.04	1.07	0.965	1	1.2	1.24	1.19	1.27	1.18	0.983	1.02	1.12	1	0.855	0.617	0.511	0.525	0.502	0.423
NCI-H838	0.815	0.814	0.875	0.864	0.854	1.25	1.27	1.09	1.12	1.05	0.332	0.286	0.388	0.282	0.249	0.353	0.303	0.272	0.328	0.268
